Laboratory results from patent publication US4466980A, “Thiaprostaglandin E1 derivatives, process for production thereof, and pharmaceutical use thereof” (Teijin Limited, priority 1980, dated 1984).
Values after ≈ are worked out from the molar mass of the structure shown.

Experiments:
platelet aggregation [1] = test: extra vivo inhibitory activity of platelet aggregation after oral administration; format: in vivo, guinea pigs (Hartley strain); conditions: Cavia porcellus; for inhibition at 10 mg/kg: 10 mg/kg p.o.; for inhibition at 3 mg/kg: 3 mg/kg p.o.
Description: The extra vivo platelet aggregation inhibitory activity of the 7-thiaprostaglandin E1 derivatives of the invention were measured by using guinea pigs. A test drug prepared as a 30% ethanol solution of each of the compounds of the invention in ethanol diluted with physiological saline and as a control 30% ethanol solution were orally adminstered in a dose of 1 ml/kg to Hartleystrain guinea pigs having a body weight of 350 to 450 g which had been fasted for 17 hours. 1 hour or 4 hours after the administration of the compound, blood was drawn off by the cardiac puncture using trisodium citrate so that the ratio of the blood to 3.8% trisodium citrate was 9:1. The blood was centrifuged at a speed of 700 rpm for 10 minutes. The upper layer was separated as plateletrich plasma (PRP). The lower layer was further centrifuged at a speed of 2800 rpm for 10 minutes. The upper layer was separated as platelet poor plasma (PPP). 250 microliters of the resulting PRP was taken into an aggregometer cuvette, and incubated at 37° C. for 2 minutes. Then, 25 microliters of a […] ADP disodium solution adjusted by dissolving with 0.1M tris-HCl buffer (ph 8.0) was added. The aggregation curve was recorded for 3 minutes. The maximum degree of aggregation of platelets within this time period was read, and the rate of inhibitor of platelet aggregation was calculated from the following equation. [formula] TC : the transmittance of a control group (to which only the 30% ethanol solution was administered),
TD : the transmittance of a drug administered group.

platelet aggregation [2] = test: in vitro inhibitory activity of platelet aggregation (ADP); format: cell-based, rabbit (Japanese domestic white male); conditions: Oryctolagus cuniculus, rabbit PRP, 10 μM ADP, 37° C., read-out: IC50 (minimum concentration which inhibited more than 50% of platelet aggregation)
Description: The in vitro platelet aggregation imhibiting activity of the compounds of the invention were examined by using rabbits. Blood was withdrawn from the ear vein of Japanese domestic white male rabbits weighing 2.5 to 3.5 kg. A mixture of a 3.8% trisodium citrate solution and the blood in a ratio of 1:9 was centrifuged at a speed of 1000 rpm for 10 minutes. The upper layer was separated as platelet-rich plasma (PRP). The lower layer was further centrifuged at a speed of 2800 rpm for 10 minutes. The upper layer was separated as platelet-poor plasma (PPP). The number of platelets was adjusted to 6×10^5 /μl to 7×10^5 /μl by diluting the PRP with PPP. 25 microliters of the test compounds prepared as shown below was added in an amount of 25 to 250 microliters of PRP after the adjustment, and the mixture was pre-incubated at 37° C. for 2 minutes, and then 10 μM (final) of ADP was added. By using an aggregometer, changes in transmission were recorded.
The drug was dissolved in ethanol to a concentration of 10 mg/ml, and successively diluted with phosphate buffer (pH 7.4) prior to use.
The rate of inhibition of platelet aggregation was determined from the following equation. [formula] To : the transmittance of the system containing the phosphate buffer, T: the transmittance of the sytem to which the test drug was added.
The minimum concentration of the drug which inhibited more than 50% of platelet aggregation was shown as an IC50 value.

[3] = tested on: blood pressure and heart beat rate of rats; test: hypotensive activity and heart beat rate, intravenous injection in anesthetized rats; format: in vivo, male wister rats; conditions: Rattus norvegicus, i.v.; for ED (10% increase of heart rate): read-out: H-ED10 (dosage causing a 10% increase of the heart rate); for ED (20% lowering of blood pressure): read-out: P-ED20 (dosage causing a 20% lowering of the mean blood pressure)
Description: (1) The actions of the thiaprostaglandin E1 derivatives of the invention on the blood pressure and heart beat rate of rats were examined by intravenous injection under anesthesia. Male wister rats weighing about 250 g were used. Urethane (500 mg/kg) and α-chloralose (100 mg/kg) were intraperitoneally administered to the rats. The rats were anesthetized and fixed in place. Each of the test compounds was dissolved in a small amount of ethanol and diluted with physiological saline to adjust the final ethanol concentration to not more than 5%. The solution was intravenously injected into the rats through a catheter inserted into the femoral vein. The blood pressure of the rats was measured by a pressure transducer through a catheter inserted into the carotid artery of the rats. The heart beat rate was determined from the blood pressure pulse. The action of the test compound of the blood pressure was expressed as the dosage (p-ED20, μg/kg) of the test compound which caused a 20% lowering of the mean blood pressure before administration of the compound. The action of the test compound on the heart rate was expressed as the dosage (H-ED10, μg/kg) of the test compound which caused a 10% increase of the heart rate from the heart beat rate before administration of the test compound.

SMILES | IC50 (platelet aggregation [2]) | also measured
O=C(CCCCCS[C@H]1C(=O)C[C@@H](O)[C@@H]1/C=C/[C@@H](O)C1CCCCC1)OCc1ccccc1 [Compound 147, 16,17,18,19,20-pentanor-15-cyclohexyl-7-thiaprostaglandin E1 benzyl ester] | 0.054 µg/mL (≈ 0.114 µM) | inhibition at 10 mg/kg (platelet aggregation [1]; 1 hr): 54%; inhibition at 10 mg/kg (platelet aggregation [1]; 4 hr): 28.9%
CCCC[C@H](C)C[C@H](O)/C=C/[C@H]1[C@H](O)CC(=O)[C@@H]1SCCCCCC(=O)OC [Compound 131, 17(S),20-dimethyl-7-thiaprostaglandin E1 methyl ester] | 0.0006 µg/mL (≈ 0.00145 µM) | inhibition at 3 mg/kg (platelet aggregation [1]; 1 hr): 100%; ED (10% increase of heart rate) [3]: 0.83 µg/kg; ED (20% lowering of blood pressure) [3]: 2.3 µg/kg
O=C(O)CCCCSC[C@H]1C(=O)C[C@@H](O)[C@@H]1/C=C/[C@@H](O)C1CCCCC1 [Compound 303, 16,17,18,19,20-pentanor-15-cyclohexyl-6-thiaprostaglandin E1] | 0.27 µg/mL (≈ 0.702 µM) | 
CCCCCCCCCCOC(=O)CCCCCS[C@H]1C(=O)C[C@@H](O)[C@@H]1/C=C/[C@@H](O)C1CCCCC1 [Compound 143, 16,17,18,19,20-pentanor-15-cyclohexyl-7-thiaprostaglandin E1 decyl ester] | 0.058 µg/mL (≈ 0.111 µM) | 
COC(=O)CCCCCS[C@@H]1C(=O)C[C@H](O)[C@H]1/C=C/[C@@H](O)C1CCCCC1 [15-epi-ent of Compound 138] | 0.11 µg/mL (≈ 0.276 µM) | 
COC(=O)C(C)CCCCS[C@H]1C(=O)C[C@@H](O)[C@@H]1/C=C/[C@@H](O)C1CCCCC1 (stereo partly shown) [Compound 150, 16,17,18,19,20-pentanor-15-cyclohexyl-2-methyl-7-thiaprostaglandin E1 methyl ester] | 0.52 µg/mL (≈ 1.26 µM) | inhibition at 10 mg/kg (platelet aggregation [1]; 1 hr): 20.8%; inhibition at 10 mg/kg (platelet aggregation [1]; 4 hr): 0.7%
CCCC[C@H](C)C[C@H](O)/C=C/[C@H]1[C@H](O)CC(=O)[C@@H]1SCCC/C=C/C(=O)OC [Compound 160, 17(S),20-dimethyl-2,3-dehydro-7-thiaprostaglandin E1 methyl ester] | 0.64 µg/mL (≈ 1.55 µM) | 
CCCCC[C@H](O)/C=C/[C@H]1[C@H](O)CC(=O)[C@@H]1SCCCCCC(=O)OC [Compound 124, 7-Thiaprostaglandin E1 methyl ester] | 0.47 µg/mL (≈ 1.22 µM) | 
CCCC[C@@H](C)C[C@H](O)/C=C/[C@H]1[C@H](O)CC(=O)[C@@H]1SCCCCCC(=O)OC [Compound 134, 17(R),20-dimethyl-7-thiaprostaglandin E1 methyl ester] | 0.0018 µg/mL (≈ 0.00434 µM) | 
O=C(O)CCCCCS[C@H]1C(=O)C[C@@H](O)[C@@H]1/C=C/[C@@H](O)C1CCCCC1 [Compound 111, 16,17,18,19,20-pentanor-15-cyclohexyl-7-thiaprostaglandin E1] | 0.004 µg/mL (≈ 0.0104 µM) | ED (10% increase of heart rate) [3]: 2.5 µg/kg; ED (20% lowering of blood pressure) [3]: 1.17 µg/kg
COC(=O)/C=C/CCCS[C@H]1C(=O)C[C@@H](O)[C@@H]1/C=C/[C@@H](O)C1CCCCC1 [Compound 156, 16,17,18,19,20-pentanor-15-cyclohexyl-2,3-dehydro-7-thiaprostaglandin E1 methyl ester] | 0.091 µg/mL (≈ 0.229 µM) | 
CCCCC[C@H](O)/C=C/[C@H]1[C@H](O)CC(=O)[C@@H]1CCCSCCC(=O)OC [Compound 405, 4-thiaprostaglandin E1 methyl ester] | 8.6 µg/mL (≈ 22.2 µM) | 
O=C(CCCCCS[C@H]1C(=O)C[C@@H](O)[C@@H]1/C=C/[C@@H](O)C1CCCCC1)Oc1ccccc1 [Compound 144, 16,17,18,19,20-pentanor-15-cyclohexyl-7-thiaprostaglandin E1 phenyl ester] | 0.015 µg/mL (≈ 0.0326 µM) | inhibition at 3 mg/kg (platelet aggregation [1]; 1 hr): 37.4%; inhibition at 3 mg/kg (platelet aggregation [1]; 4 hr): 3%; inhibition at 10 mg/kg (platelet aggregation [1]; 1 hr): 85.4%; inhibition at 10 mg/kg (platelet aggregation [1]; 4 hr): 79.2%; ED (10% increase of heart rate) [3]: 2.6 µg/kg; ED (20% lowering of blood pressure) [3]: 3.4 µg/kg
CCCCC[C@H](O)/C=C/[C@H]1[C@H](SCCCCCC(=O)OC)C(=O)C[C@@H]1O [15-epi-ent of Compound 124] | 8.9 µg/mL (≈ 23 µM) | 
CCCCC[C@H](O)/C=C/[C@H]1[C@H](O)CC(=O)[C@@H]1CSCCCCC(=O)O [Compound 300, 6-thiaprostaglandin E1] | 0.45 µg/mL (≈ 1.21 µM) | 
COC(=O)CCSCCC[C@H]1C(=O)C[C@@H](O)[C@@H]1/C=C/[C@@H](O)C1CCCCC1 [Compound 413] | 2.4 µg/mL (≈ 6.02 µM) | 
CCCCC[C@H](O)/C=C/[C@H]1[C@H](O)CC(=O)[C@@H]1CSCCCCC(=O)OC [Compound 305, 6-thiaprostaglandin E1 methyl ester] | 6 µg/mL (≈ 15.5 µM) | 
COC(=O)CCCCSC[C@H]1C(=O)C[C@@H](O)[C@@H]1/C=C/[C@@H](O)C1CCCCC1 [Compound 308, 16,17,18,19,20-pentanor-15-cyclohexyl-6-thiaprostaglandin E1 methyl ester] | 0.32 µg/mL (≈ 0.803 µM) | 
CCCC(C)CC(O)/C=C/[C@H]1CCC(=O)[C@@H]1SCCCCCC(=O)OC (relative stereo) [reference compound] | > 100 µg/mL | 
